Laboratory results: US12239643B2, “Therapeutic agent for inflammatory diseases, autoimmune diseases, fibrotic diseases, and cancer diseases” (MEIJI SEIKA PHARMA CO., LTD., priority 2018, dated 2025)
Where two headings read alike, the source gives them in different places.

System: PDE4
Test: Evaluation of PDE4 inhibitory activity, scintillation proximity assay
Assay type: biochemical
Conditions: scintillation proximity assay
Method in brief: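 IC50 was derived from inhibition curves, referenced to an enzyme-free blank and a DMSO-only control. Compound, PDE4 preparation and tritiated cAMP reacted 120 min at RT in Tris-HCl buffer (pH 7.4) with MgCl2, EGTA and BSA; YSi-SPA beads with ZnSO4 bound product before scintillation counting.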

[1] = class symbols of Evaluation 1, read-out: PDE4 Inhibitory Activity (concentration for the inhibition rate of 50%, IC50), Evaluation 1
[2] = read-out: PDE4 Inhibitory Activity (Evaluation 1; concentration for the inhibition rate of 50%)

Row | Structure (SMILES) | IC50 [1] | IC50 [2]
1 | COC(c1cc(-c2nccs2)c2oc(N3CC4CCC(C3)N4)nc2c1)C(F)(F)F (stereo not drawn) [Example 143, 2-(3,8-Diazabicyclo[3.2.1]octan-3-yl)-7-(thiazol-2-yl)-5-(2,2,2-trifluoro-1-methoxyethyl)benzo[d]oxazole] | < 100 nM | 
2 | COCCOC(c1cc(-c2nccs2)c2oc(N3CC4CC(C3)N4)nc2c1)C(F)(F)F (stereo not drawn) [Example 154, 2-(3,6-Diazabicyclo[3.1.1]heptan-3-yl)-7-(thiazol-2-yl)-5-(2,2,2-trifluoro-1-(2-methoxyethoxy)ethyl)benzo[d]oxazole] | < 100 nM | 
3 | Oc1cc(-c2nccs2)c2oc(N3CC4CC(C3)N4)nc2c1 [Example 64, 2-(3,6-Diazabicyclo[3.1.1]heptan-3-yl)-7-(thiazol-2-yl)benzo[d]oxazol-5-ol] | < 100 nM | 
4 | CC(C)(O)c1cc(-c2nccs2)c2oc(N3CC4CCC(C3)N4)nc2c1 [Example 172, 2-(2-(3,8-Diazabicyclo[3.2.1]octan-3-yl)-7-(thiazol-2-yl)benzo[d]oxazol-5-yl)propan-2-ol] | < 100 nM | 
5 | O=C(NCc1ccccc1)c1cc(-c2nccs2)c2oc(N3CC4CCC(C3)N4)nc2c1 [Example 98, N-benzyl-2-(3,8-diazabicyclo[3.2.1]octan-3-yl)-7-(thiazol-2-yl)benzo[d]oxazole-5-carboxamide] | < 100 nM | 
6 | CC(C)C(O)c1cc(-c2nccs2)c2oc(N3CC4CCC(C3)N4)nc2c1OC(F)(F)F (stereo not drawn) [Example 205, 1-(2-(3,8-Diazabicyclo[3.2.1]octan-3-yl)-7-(thiazol-2-yl)-4-(trifluoromethoxy)benzo[d]oxazol-5-yl)-2-methylpropan-1-ol] |  | < 100 nM
7 | COC(c1ccc(-c2nccs2)c2oc(N3CC4CCC(C3)N4)nc12)C(F)F (stereo not drawn) [Example 131, 2-(3,8-Diazabicyclo[3.2.1]octan-3-yl)-4-(2,2-difluoro-1-methoxyethyl)-7-(thiazol-2-yl)benzo[d]oxazole] | < 100 nM | 
8 | O=C(c1cc(-c2nccs2)c2oc(N3CC4CCC(C3)N4)nc2c1OC(F)(F)F)N1CCC1 [Example 192, (2-(3,8-Diazabicyclo[3.2.1]octan-3-yl)-7-(thiazol-2-yl)-4-(trifluoromethoxy)benzo[d]oxazol-5-yl)(azetidin-1-yl)methanone] |  | < 100 nM
9 | OC(COc1ccc(-c2nccs2)c2oc(N3CC4CC(C3)N4)nc12)C(F)(F)F (stereo not drawn) [Example 277, 3-((2-(3,6-Diazabicyclo[3.1.1]heptan-3-yl)-7-(thiazol-2-yl)benzo[d]oxazol-4-yl)oxy)-1,1,1-trifluoropropan-2-ol] |  | < 100 nM
10 | O=C(c1cc(-c2nccs2)c2oc(N3CC4CCC(C3)N4)nc2c1)N1CCCCC1 [Example 96, (2-(3,8-Diazabicyclo[3.2.1]octan-3-yl)-7-(thiazol-2-yl)benzo[d]oxazol-5-yl)(piperidin-1-yl)methanone] | < 100 nM | 
11 | FC(F)Oc1ccc(-c2nccs2)c2oc(N3CC4CCC(C3)N4)nc12 [Example 263, 2-(3,8-Diazabicyclo[3.2.1]octan-3-yl)-4-(difluoromethoxy)-7-(thiazol-2-yl)benzo[d]oxazole] |  | < 100 nM
12 | FC(F)(F)Oc1cc(-c2nccs2)c2oc(N3CC4CC(C3)N4)nc2c1 [Example 56, 2-(3,6-Diazabicyclo[3.1.1]heptan-3-yl)-7-(thiazol-2-yl)-5-(trifluoromethoxy)benzo[d]oxazole] | < 100 nM | 
13 | FC(F)(F)c1ccc(-c2nccs2)c2oc(N3CC4CCCC(C3)N4)nc12 [Example 33, 2-(3,9-Diazabicyclo[3.3.1]nonan-3-yl)-7-(thiazol-2-yl)-4-(trifluoromethyl)benzo[d]oxazole] | < 100 nM | 
14 | N#CCOC(c1ccc(-c2nccs2)c2oc(N3CC4CC(C3)N4)nc12)C(F)(F)F (stereo not drawn) [Example 226, 2-(1-(2-(3,6-Diazabicyclo[3.1.1]heptan-3-yl)-7-(thiazol-2-yl)benzo[d]oxazol-4-yl)-2,2,2-trifluoroethoxy)acetonitrile] |  | < 100 nM
15 | CC(C)(O)C(F)(F)Oc1ccc(-c2nccs2)c2oc(N3CC4CC(C3)N4O)nc12 [Example 371, 3-(4-(1,1-Difluoro-2-hydroxy-2-methylpropoxy)-7-(thiazol-2-yl)benzo[d]oxazol-2-yl)-3,6-diazabicyclo[3.1.1]heptan-6-ol] |  | < 100 nM
16 | COCCOC(c1ccc(-c2nccs2)c2oc(N3CC4CC(C3)N4)nc12)C(F)(F)F (stereo not drawn) [Example 229, 2-(3,6-Diazabicyclo[3.1.1]heptan-3-yl)-7-(thiazol-2-yl)-4-(2,2,2-trifluoro-1-(2-methoxyethoxy)ethyl)benzo[d]oxazole] |  | < 100 nM
17 | CC(C)(O)c1cc(-c2nccs2)c2oc(N3CC4CC(C3)N4)nc2c1OC(F)(F)F [Example 196, 2-(2-(3,6-Diazabicyclo[3.1.1]heptan-3-yl)-7-(thiazol-2-yl)-4-(trifluoromethoxy)benzo[d]oxazol-5-yl)propan-2-ol] |  | < 100 nM
18 | COC(C)(c1cc(-c2nccs2)c2oc(N3CC4CCCC(C3)N4)nc2c1)C(F)(F)F (stereo not drawn) [Example 162] | < 100 nM | 

Row | Structure (SMILES) | IC50 [1] | IC50 [2]
19 | c1csc(-c2ccc(OC3CCOC3)c3nc(N4CC5CCC(C4)N5)oc23)n1 (stereo not drawn) [Example 84, 2-(3,8-Diazabicyclo[3.2.1]octan-3-yl)-4-((tetrahydrofuran-3-yl)oxy)-7-(thiazol-2-yl)benzo[d]oxazole] | < 100 nM | 
20 | CC(=O)c1cc(-c2nccs2)c2oc(N3CC4CCC(C3)N4)nc2c1 [Example 108, 1-(2-(3,8-Diazabicyclo[3.2.1]octan-3-yl)-7-(thiazol-2-yl)benzo[d]oxazol-5-yl)ethan-1-one] | < 100 nM | 
21 | COC(C)(c1cc(-c2nccs2)c2oc(N3CC4CCC(C3)N4)nc2c1OC(F)(F)F)C(F)(F)F (stereo not drawn) [Example 215, 2-(3,8-Diazabicyclo[3.2.1]octan-3-yl)-7-(thiazol-2-yl)-5-(1,1,1-trifluoro-2-methoxypropan-2-yl)-4-(trifluoromethoxy)benzo[d]oxazole] |  | < 100 nM
22 | CC(=O)Nc1cc(-c2nccs2)c2oc(N3CC4CC(C3)N4)nc2c1 [Example 49, N-(2-(3,6-diazabicyclo[3.1.1]heptan-3-yl)-7-(thiazol-2-yl)benzo[d]oxazol-5-yl)acetamide] | 100 to 1000 nM | 
23 | CCOC(=O)c1ccc(-c2nccs2)c2oc(N3CC4CCC(C3)N4)nc12 [Example 112, Ethyl 2-(3,8-diazabicyclo[3.2.1]octan-3-yl)-7-(thiazol-2-yl)benzo[d]oxazole-4-carboxylate] | < 100 nM | 
24 | CC(C)C(O)C(F)(F)Oc1ccc(-c2nccs2)c2oc(N3CC4CC(C3)N4)nc12 (stereo not drawn) [Example 362, 1-((2-(3,6-Diazabicyclo[3.1.1]heptan-3-yl)-7-(thiazol-2-yl)benzo[d]oxazol-4-yl)oxy)-1,1-difluoro-3-methylbutan-2-ol] |  | < 100 nM
25 | CC(=O)Nc1cc(-c2nccs2)c2oc(N3CC4CCCC(C3)N4)nc2c1 [Example 48, N-(2-(3,9-diazabicyclo[3.3.1]nonan-3-yl)-7-(thiazol-2-yl)benzo[d]oxazol-5-yl)acetamide] | < 100 nM | 
26 | CCOC(=O)c1cc(-n2cccn2)c2oc(N3CC4CC(C3)N4)nc2c1 [Example 91, Ethyl 2-(3,6-diazabicyclo[3.1.1]heptan-3-yl)-7-(1H-pyrazol-1-yl)benzo[d]oxazole-5-carboxylate] | > 1000 nM | 
27 | FC(F)(F)Oc1c(Cl)cc(-c2ccccn2)c2oc(N3CC4CCC(C3)N4)nc12 [Example 7, 2-(3,8-Diazabicyclo[3.2.1]octan-3-yl)-5-chloro-7-(pyridin-2-yl)-4-(trifluoromethoxy)benzo[d]oxazole] | < 100 nM | 
28 | CC(O)c1ccc(-c2nccs2)c2oc(N3CC4CC(C3)N4)nc12 (stereo not drawn) [Example 240, 1-(2-(3,6-Diazabicyclo[3.1.1]heptan-3-yl)-7-(thiazol-2-yl)benzo[d]oxazol-4-yl)ethan-1-ol] |  | < 100 nM
29 | CS(=O)(=O)c1cc(-c2nccs2)c2oc(N3CC4CCC(C3)N4)nc2c1 [Example 45, 2-(3,8-Diazabicyclo[3.2.1]octan-3-yl)-5-(methylsulfonyl)-7-(thiazol-2-yl)benzo[d]oxazole] | < 100 nM | 
30 | COC(C)(C)C(F)(F)Oc1ccc(-c2nccs2)c2oc(N3CC4CC(C3)N4)nc12 [Example 393, 2-(3,6-Diazabicyclo[3.1.1]heptan-3-yl)-4-(1,1-difluoro-2-methoxy-2-methylpropoxy)-7-(thiazol-2-yl)benzo[d]oxazole] |  | < 100 nM
31 | c1csc(-c2ccc(OC3CCCOC3)c3nc(N4CC5CCC(C4)N5)oc23)n1 (stereo not drawn) [Example 262, 2-(3,8-Diazabicyclo[3.2.1]octan-3-yl)-4-((tetrahydro-2H-pyran-3-yl)oxy)-7-(thiazol-2-yl)benzo[d]oxazole] |  | < 100 nM
32 | COC1(c2cc(-c3nccs3)c3oc(N4CC5CC(C4)N5)nc3c2OC(F)(F)F)CC1 [Example 283, 2-(3,6-Diazabicyclo[3.1.1]heptan-3-yl)-5-(1-methoxycyclopropyl)-7-(thiazol-2-yl)-4-(trifluoromethoxy)benzo[d]oxazole] |  | < 100 nM
33 | OC(c1cc(-c2nccs2)c2oc(N3CC4CC(C3)N4)nc2c1OC(F)(F)F)C(F)F (stereo not drawn) [Example 292, 1-(2-(3,6-Diazabicyclo[3.1.1]heptan-3-yl)-7-(thiazol-2-yl)-4-(trifluoromethoxy)benzo[d]oxazol-5-yl)-2,2-difluoroethan-1-ol] |  | < 100 nM
34 | CCOC(c1cc(-c2nccs2)c2oc(N3CC4CCC(C3)N4)nc2c1)C(F)(F)F (stereo not drawn) [Example 148, 2-(3,8-Diazabicyclo[3.2.1]octan-3-yl)-5-(1-ethoxy-2,2,2-trifluoroethyl)-7-(thiazol-2-yl)benzo[d]oxazole] | < 100 nM | 
35 | CNS(=O)(=O)c1ccc(-c2nccs2)c2oc(N3CC4CC(C3)N4)nc12 [Example 386, 2-(3,6-Diazabicyclo[3.1.1]heptan-3-yl)-N-methyl-7-(thiazol-2-yl)benzo[d]oxazole-4-sulfonamide] |  | < 100 nM
36 | CC(C)(O)c1cc(-c2nccs2)c2oc(N3CC4CCC(C3)N4O)nc2c1C(F)(F)F [Example 381, 3-(5-(2-Hydroxypropan-2-yl)-7-(thiazol-2-yl)-4-(trifluoromethyl)benzo[d]oxazol-2-yl)-3,8-diazabicyclo[3.2.1]octan-8-ol] |  | > 1000 nM
